Inconclusive results and toxic doses are left out.

The test system of the assay is L1210 leukemia ip in BDF1 mice, survival T/C. The experiment in a line: NCI In Vivo Anticancer Drug Screen. Data for tumor model L1210 Leukemia (intraperitoneal) in B6D2F1 (BDF1) mice. To be noted: endpoint: mean survival time, higher = longer survival. In a few lines:
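Survival endpoint. Drug-treated group vs vehicle group, expressed as T divided by C. Tumor passaged by transplantation.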

[1] abbreviates: dose: 100.0 mg/kg/injection, schedule: Q01DX009 (ip), vehicle: saline with Tween-80.
The mark [2] stands for this setting: dose: 200.0 mg/kg/injection, schedule: Q01DX009 (ip), vehicle: saline with Tween-80.
The mark [3] stands for this setting: dose: 50.0 mg/kg/injection, schedule: Q01DX009 (ip), vehicle: saline with Tween-80.
Setting [4] is: dose: 100.0 mg/kg/injection, schedule: Q01DX001 (ip), vehicle: carboxymethylcellulose (CMC).
Where [5] appears, read: dose: 200.0 mg/kg/injection, schedule: Q01DX001 (ip), vehicle: carboxymethylcellulose (CMC).
The mark [6] stands for this setting: dose: 400.0 mg/kg/injection, schedule: Q01DX001 (ip), vehicle: carboxymethylcellulose (CMC).
Where [7] appears, read: dose: 100.0 mg/kg/injection, schedule: Q01DX001 (ip), vehicle: other.
Where [8] appears, read: dose: 200.0 mg/kg/injection, schedule: Q01DX001 (ip), vehicle: other.
The mark [9] stands for this setting: dose: 400.0 mg/kg/injection, schedule: Q01DX001 (ip), vehicle: other.
[10] abbreviates: dose: 100.0 mg/kg/injection, schedule: Q01DX001 (ip), vehicle: saline.
The mark [11] stands for this setting: dose: 200.0 mg/kg/injection, schedule: Q01DX001 (ip), vehicle: saline.
The mark [12] stands for this setting: dose: 400.0 mg/kg/injection, schedule: Q01DX001 (ip), vehicle: saline.
Where [13] appears, read: dose: 100.0 mg/kg/injection, schedule: Q04DX002 (ip), vehicle: Klucel (hydroxypropylcellulose) (HPC).
Where [14] appears, read: dose: 200.0 mg/kg/injection, schedule: Q04DX002 (ip), vehicle: Klucel (hydroxypropylcellulose) (HPC).

In the case of `O=c1[nH]c(-c2ccccc2)c(CO)c(=O)[nH]1`, the T/C is 103 % of control (dose: 75.0 mg/kg/injection, schedule: Q04DX003 (ip), vehicle: Klucel (hydroxypropylcellulose) (HPC)); 96 % of control (dose: 100.0 mg/kg/injection, schedule: Q01DX001 (ip), vehicle: Klucel (hydroxypropylcellulose) (HPC)); 97 % of control (dose: 150.0 mg/kg/injection, schedule: Q04DX003 (ip), vehicle: Klucel (hydroxypropylcellulose) (HPC)); 102 % of control (dose: 200.0 mg/kg/injection, schedule: Q01DX001 (ip), vehicle: Klucel (hydroxypropylcellulose) (HPC)); 105 % of control (dose: 300.0 mg/kg/injection, schedule: Q04DX003 (ip), vehicle: Klucel (hydroxypropylcellulose) (HPC)); 109 % of control (dose: 400.0 mg/kg/injection, schedule: Q01DX001 (ip), vehicle: Klucel (hydroxypropylcellulose) (HPC)).

Turning to `CCN=C(c1ccc(NC(=O)c2ccc(C(=O)Nc3ccc(C(=NCC)N(CC)C(=O)NCC(=O)OCC)cc3)cc2)cc1)N(CC)C(=O)NCC(=O)OCC`, the T/C (dose: 3.12 mg/kg/injection, schedule: Q01DX015 (ip), vehicle: methylcellulose (MC)) is 109 % of control; the T/C (dose: 12.5 mg/kg/injection, schedule: Q01DX015 (ip), vehicle: methylcellulose (MC)) is 155 % of control; the T/C (dose: 25.0 mg/kg/injection, schedule: Q01DX015 (ip), vehicle: methylcellulose (MC)) was 101 % of control.

For `O=C(Nc1coc2ccc(Cl)cc12)C1CC1`, the T/C reads like this: under setting [1], 86 % of control; under setting [2], 99 % of control.

Take `Cn1c(=O)cn[nH]c1=O`: the T/C was 100 % of control under setting [3], 108 % of control under setting [1] and 103 % of control under setting [2].

For `CCSC(SCC)C(SCC)C(O)C(O)C(O)CO` (configuration not stated), the T/C is, setting by setting: under setting [4], 106 % of control; under setting [5], 112 % of control; under setting [6], 114 % of control.

For the molecule `COc1ccc2nccc(C(=O)CCC3CCN(C(=O)c4ccc([N+](=O)[O-])cc4)CC3C(CBr)CCBr)c2c1` (configuration not stated), the T/C runs as follows: under setting [7], 104 % of control; under setting [8], 88 % of control; under setting [9], 111 % of control.

`Cc1ccc(S(=O)(=O)OCC2OC(n3cnc4c(NC=O)ncnc43)C(OC=O)C2OC=O)cc1` (configuration not stated): the T/C was 115 % of control (dose: 50.0 mg/kg/injection, schedule: Q01DX009 (ip), vehicle: gum acacia); 105 % of control (dose: 100.0 mg/kg/injection, schedule: Q01DX005 (ip), vehicle: saline); 104 % of control (dose: 100.0 mg/kg/injection, schedule: Q01DX009 (ip), vehicle: gum acacia); 100 % of control (dose: 200.0 mg/kg/injection, schedule: Q01DX009 (ip), vehicle: gum acacia).

Take `O=C(Nc1csnn1)c1ccco1`: the T/C (dose: 50.0 mg/kg/injection, schedule: Q01DX001 (ip), vehicle: other) was 104 % of control; the T/C under setting [7] was 115 % of control; the T/C under setting [8] is 104 % of control; the T/C under setting [9] is 110 % of control.

As to `CCCCCCCNC1=C(C)C(=O)C(NCCCCCCC)=C(C)C1=O`, the T/C runs as follows: under setting [4], 96 % of control; under setting [10], 93 % of control; under setting [5], 96 % of control; under setting [11], 96 % of control; under setting [6], 89 % of control; under setting [12], 93 % of control.

As for `CCCCOC(=O)CC(C(=O)OCCCC)S(=O)(=O)O` (configuration not stated), the T/C by setting is: under setting [10], 96 % of control; under setting [11], 104 % of control; under setting [12], 101 % of control.

As to `CCCCCC(=C/c1ccccc1)/C=N/N=C(N)N`, the T/C is 93 % of control (dose: 15.0 mg/kg/injection, schedule: Q01DX Z (ip), vehicle: saline); 104 % of control (dose: 30.0 mg/kg/injection, schedule: Q01DX Z (ip), vehicle: saline); 94 % of control (dose: 30.0 mg/kg/injection, schedule: Q01DX Z (oral), vehicle: saline); 98 % of control (dose: 60.0 mg/kg/injection, schedule: Q01DX Z (ip), vehicle: saline); 90 % of control (dose: 60.0 mg/kg/injection, schedule: Q01DX Z (oral), vehicle: saline); 94 % of control (dose: 120.0 mg/kg/injection, schedule: Q01DX Z (oral), vehicle: saline).

With `COc1ccc(OC)c(NC(=O)N(C)CCC#N)c1`, the T/C is, setting by setting: (dose: 100.0 mg/kg/injection, schedule: Q01DX009 (ip), vehicle: Klucel (hydroxypropylcellulose) (HPC)) 106 % of control; (dose: 200.0 mg/kg/injection, schedule: Q01DX009 (ip), vehicle: Klucel (hydroxypropylcellulose) (HPC)) 101 % of control; (dose: 400.0 mg/kg/injection, schedule: Q01DX009 (ip), vehicle: Klucel (hydroxypropylcellulose) (HPC)) 106 % of control.

On to `NNC(=O)CNc1cccc(F)c1`, for which the T/C is, setting by setting: under setting [13], 105 % of control; under setting [14], 119 % of control.

`CCCCCSc1cccc(N)c1`: the T/C is 112 % of control (dose: 100.0 mg/kg/injection, schedule: Q01DX001 (ip), vehicle: saline with Tween-80); 102 % of control (dose: 200.0 mg/kg/injection, schedule: Q01DX001 (ip), vehicle: saline with Tween-80); 97 % of control (dose: 400.0 mg/kg/injection, schedule: Q01DX001 (ip), vehicle: saline with Tween-80).

`COc1ccc(C2=Cc3ccc(OC(C)=O)cc3OC2)cc1`: the T/C reads like this: (dose: 50.0 mg/kg/injection, schedule: Q01DX001 (sc), vehicle: steriod suspending solution) 101 % of control; (dose: 100.0 mg/kg/injection, schedule: Q01DX001 (sc), vehicle: steriod suspending solution) 103 % of control; (dose: 200.0 mg/kg/injection, schedule: Q01DX001 (sc), vehicle: steriod suspending solution) 101 % of control; (dose: 400.0 mg/kg/injection, schedule: Q01DX001 (sc), vehicle: steriod suspending solution) 95 % of control.

Take `NC(=O)NC(=O)/C=C/C(=O)O`: the T/C is 100 % of control under setting [3]; 94 % of control under setting [1]; 92 % of control (dose: 100.0 mg/kg/injection, schedule: Q04DX003 (ip), vehicle: saline with Tween-80); 90 % of control (dose: 200.0 mg/kg/injection, schedule: Q04DX003 (ip), vehicle: saline with Tween-80).

For `Cc1c2ccccc2c(CN(C)CC(=O)O)c2ccccc12`, the T/C is 92 % of control under setting [3], 90 % of control under setting [1] and 92 % of control under setting [2].

Turning to `CC(=O)Nc1ccc2c(O)cc(S(=O)(=O)O)cc2c1`, the T/C is 95 % of control (dose: 50.0 mg/kg/injection, schedule: Q01DX009 (ip), vehicle: saline); 99 % of control (dose: 100.0 mg/kg/injection, schedule: Q01DX009 (ip), vehicle: saline); 101 % of control (dose: 100.0 mg/kg/injection, schedule: Q04DX003 (ip), vehicle: saline); 100 % of control (dose: 200.0 mg/kg/injection, schedule: Q01DX009 (ip), vehicle: saline); 104 % of control (dose: 200.0 mg/kg/injection, schedule: Q04DX003 (ip), vehicle: saline); 98 % of control (dose: 400.0 mg/kg/injection, schedule: Q04DX003 (ip), vehicle: saline).

With `CCNCC(=O)N(N=O)C(=O)OCC`, the T/C (dose: 75.0 mg/kg/injection, schedule: Q01DX001 (ip), vehicle: steriod suspending solution) is 110 % of control and the T/C (dose: 150.0 mg/kg/injection, schedule: Q01DX001 (ip), vehicle: steriod suspending solution) was 102 % of control.

As to `CCCCC(CC)CNC1CCCCC1` (configuration not stated), the T/C runs as follows: (dose: 75.0 mg/kg/injection, schedule: Q01DX009 (ip), vehicle: Klucel (hydroxypropylcellulose) (HPC)) 98 % of control; under setting [13], 101 % of control; (dose: 150.0 mg/kg/injection, schedule: Q01DX009 (ip), vehicle: Klucel (hydroxypropylcellulose) (HPC)) 101 % of control; under setting [14], 97 % of control.

As for `CCCCCCCCCCCCNc1nnc(Cl)c2ccccc12`, the T/C by setting is: (dose: 100.0 mg/kg/injection, schedule: Q04DX003 (ip), vehicle: Klucel (hydroxypropylcellulose) (HPC)) 95 % of control; (dose: 200.0 mg/kg/injection, schedule: Q04DX003 (ip), vehicle: Klucel (hydroxypropylcellulose) (HPC)) 97 % of control; (dose: 400.0 mg/kg/injection, schedule: Q04DX003 (ip), vehicle: Klucel (hydroxypropylcellulose) (HPC)) 92 % of control.
